The term IC50 denotes the concentration that inhibits the measured activity by half.

What all share (assay): cells
Common to all, as to format: cell-based

Test [1] relates to MES SA cells. The note with it: Homo sapiens, 72 h, read-out: IC50 MES SA.
For test [2], the system named is 293T cells. The settings on record: Homo sapiens, HEK-293T, 72 h, read-out: IC50 293T.
For test [3], the system named is MES DX cells. The note with it: MDR1, 72 h, read-out: IC50 MES DX.

The structures appear in SMILES notation.

For `COC(=O)NC1=C2/C(=C\CSSSC)[C@](O)(C#C/C=C\C#C[C@]2(O)OC2OC(C)C(SC)(C(=O)c3nccc4c3[nH]c3ccc(O)cc34)C(O)C2OC2CC(OC)C(NC(C)C)CO2)CC1=O` (stereo partly shown), the values for the IC50 in test [1] and in test [2] were 12.6 pM and 16.2 pM, respectively.
Consider `COC(=O)NC1=C2/C(=C\CSSC)[C@](O)(C#C/C=C\C#C[C@]2(O)OC2OC(C)C(SC)(C(=O)c3nccc4c3[nH]c3ccc(O)cc34)C(O)C2OC2CC(OC)C(NC(C)C)CO2)CC1=O` (stereo partly shown), for which the IC50 turned out to be 34600 pM in test [3] and 1.46 pM in test [2].

The record behind these values is patent publication US10590158B2 (priority 2015, dated 2020).
